PMC12142043, “Cell-based high-content approach for SARS-CoV-2 neutralization identifies unique monoclonal antibodies and PI3K pathway inhibitors” (Frontiers in Cell and Developmental Biology, 2025)
Read-outs that look alike come from different tables or passages of the source.

Tested on: SARS-CoV-2 (USA-WA1/2020) in Calu-3 cells
Assay type: cell-based
[1] = high dose (10 µM), Calu-3, 48 h
[2] = low dose (100 nM), Calu-3, 48 h

Row | Compound | dsRNA signal, AU High [1] | dsRNA signal, AU Low [2] | dsRNA signal, AU High | dsRNA signal, AU Low
1 | Cc1cnc(NC(=O)Nc2cc(Br)c(C)cc2OC[C@@H]2CNCCO2)cn1 [LY2603618] | 13995.2 AU | 6197.3 AU | – | –
2 | kb NB 142-70 | 958.0 AU | 2847.9 AU | – | –
3 | C[C@@H]1CCN(C(=O)CC#N)C[C@@H]1N(C)c1ncnc2[nH]ccc12.O=C(O)CC(O)(CC(=O)O)C(=O)O [Tofacitinib (CP-690550) Citrate] | 57107.2 AU | 61115.5 AU | – | –
4 | O=c1cc(CN2CCOCC2)occ1OCCCCCSc1ccnc2cc(C(F)(F)F)ccc12 [EHT 1864] | 22471.9 AU | 17099.7 AU | – | –
5 | O=C(O)c1ccc(N2C(=O)/C(=C\c3ccc(-c4ccc([N+](=O)[O-])cc4)o3)C=C2c2ccccc2)cc1 [4E1RCat] | 11534.6 AU | 17206.1 AU | – | –
6 | CCn1c(-c2nonc2N)nc2c(C#CC(C)(C)O)ncc(OC[C@H]3CCCNC3)c21 [GSK690693] | 6007.3 AU | 39582.1 AU | – | –
7 | COc1cc(N2CCC(N)CC2)ccc1Nc1ncc(Cl)c(-c2c[nH]c3ccccc23)n1 [AZD-3463] | 9390.1 AU | 40804.7 AU | – | –
8 | Cc1[nH]nc2ccc(-c3cncc(OC[C@@H](N)Cc4ccccc4)c3)cc12 [A-674563] | 0.0 AU | 6156.4 AU | – | –
9 | 10058-F4 | 21785.0 AU | 24031.2 AU | – | –
10 | COc1ccc2c(c[n+](C)c3c4cc5c(cc4ccc23)OCO5)c1OC [Chelerythrine Chloride] | 10306.1 AU | 22120.5 AU | – | –
11 | N#Cc1cccc(-c2c[nH]c3ncnc(N4CCOCC4)c23)c1 [PF-06447475] | 53174.2 AU | 40604.3 AU | – | –
12 | Nc1ccc(O)c(C(=O)O)c1 [Mesalamine] | 17187.6 AU | 2129.6 AU | – | –
13 | c1nc2nc(Nc3ccc(N4CCOCC4)cc3)nc(NC3CCCCC3)c2[nH]1 [Reversine] | – | – | 27234.6 | 49415.3
14 | COc1cc(Nc2ncc3c(n2)-c2ccc(Cl)cc2C(c2c(F)cccc2OC)=NC3)ccc1C(=O)O [MLN8237 (Alisertib)] | 9976.5 AU | 32491.8 AU | – | –
15 | O=c1[nH]c2ccc(Cl)cc2c(N[C@@H]2CN3CCC2CC3)c1-c1nc2ccccc2[nH]1 [CHIR-124] | 9794.1 AU | 2244.6 AU | – | –
16 | N#Cc1c(-c2ccccc2)cc(-c2cc(Br)ccc2O)[nH]c1=O [TCS PIM-1 1] | 1935.2 AU | 16463.0 AU | – | –
17 | Cc1cc(C)c(/C=C2\C(=O)Nc3ccccc32)[nH]1 [SU5416] | 39551.1 AU | 20455.1 AU | – | –
18 | CCN(CC)CCCCNc1ncc2cc(-c3cc(OC)cc(OC)c3)c(NC(=O)NC(C)(C)C)nc2n1 [PD 173074] | 6568.6 AU | 3359.6 AU | – | –
19 | COc1ccc(C[C@H]2NC[C@H](O)[C@H]2OC(C)=O)cc1 [Anisomycin] | 20082.7 AU | 2629.3 AU | – | –
20 | CO[C@H]1C[C@@H]2CC[C@@H](C)[C@@](O)(O2)C(=O)C(=O)N2CCCC[C@H]2C(=O)O[C@H]([C@H](C)C[C@@H]2CC[C@H](n3cnnn3)[C@H](OC)C2)CC(=O)[C@H](C)/C=C(\C)[C@@H](O)[C@@H](OC)C(=O)[C@H](C)C[C@H](C)/C=C/C=C/C=C/1C [Zotarolimus(ABT-578)] | 11435.6 AU | 1864.8 AU | – | –
21 | Cn1sc(=O)n(Cc2ccccc2)c1=O [TDZD-8] | 7580.3 AU | 26092.4 AU | – | –

Row | Compound | dsRNA signal, AU High [1] | dsRNA signal, AU Low [2] | dsRNA signal, AU High | dsRNA signal, AU Low
22 | Cc1ccc(NC(=O)c2ccc(CN3CC[C@H](N(C)C)C3)c(C(F)(F)F)c2)cc1Nc1nccc(-c2cncnc2)n1 [Bafetinib (INNO-406)] | 1113.6 AU | 32473.2 AU | – | –
23 | Cc1cnc(-c2cnc(NCCNc3ccc(C#N)cn3)nc2-c2ccc(Cl)cc2Cl)[nH]1 [CHIR-99021 (CT99021)] | 62333.9 AU | 10204.7 AU | – | –
24 | CS(=O)(=O)N1CCC(NC(=O)c2[nH]ncc2NC(=O)c2c(Cl)cccc2Cl)CC1 [NVP-LCQ195] | 6040.0 AU | 35350.1 AU | – | –
25 | COc1cc2ncnc(Nc3ccc(O)c(Br)c3)c2cc1OC [WHI-P154] | 5163.1 AU | 0.0 AU | – | –
26 | Nc1[nH]nc2nnc(-c3c(-c4ccccc4)nn4ccccc34)cc12 [FR 180204] | 10806.0 AU | 12597.7 AU | – | –
27 | SC 79 | 17618.8 AU | 5138.7 AU | – | –
28 | CN(C)C/C=C/C(=O)Nc1cccc(C(=O)Nc2ccc(Nc3nccc(-c4cccnc4)n3)cc2)c1 [JNK-IN-7] | 66910.1 AU | 45982.8 AU | – | –
29 | CCn1c(N)c(C(=O)NC)c(=O)c2ccc(C#C[C@@](C)(O)COC)nc21 [SAR131675] | 44218.5 AU | 34484.3 AU | – | –
30 | CN1CCCN(C(=O)c2cccc(-c3ccc(/C=C4/C(=O)Nc5ccc(Cl)cc54)o3)c2)CC1 [CX-6258] | 0.0 AU | 9957.5 AU | – | –
31 | CCn1c(C(=O)N(C2CC2)C2CC2)cc2c3c(ncn3C)c(Nc3cc(C)n(C)n3)nc21 [BMS-911543] | 18362.9 AU | 16684.7 AU | – | –
32 | Fc1ccc2[nH]ccc2c1-c1nc(N2CCOCC2)c2sc(CN3CCN(CC4CC4)CC3)cc2n1 [PI-3065] | 625.6 AU | 44145.1 AU | – | –
33 | COc1cc(-c2cc(-c3ccc(N4CCNCC4)cc3)cnc2C)cc(OC)c1OC [LDN-214117] | 4693.4 AU | 28899.6 AU | – | –
34 | COc1cc(C(=O)NC2CCN(C)CC2)c(F)cc1Nc1ncc2c(n1)N(C1CCCC1)CC(F)(F)C(=O)N2C [TAK960] | 9929.6 AU | 56355.2 AU | – | –
35 | CCS(=O)(=O)N1CC(CC#N)(n2cc(-c3ncnc4[nH]ccc34)cn2)C1 [Baricitinib (LY3009104, INCB028050)] | 27614.1 AU | 24279.2 AU | – | –
36 | COc1cc2ncnc(Nc3ccc(F)c(Cl)c3)c2cc1OCCCN1CCOCC1.Cl [Gefitinib hydrochloride] | – | – | 0.0 | 28000.5
37 | O=C(NCCO)c1cccc(-c2cc(Nc3ccc(OC(F)(F)F)cc3)ncn2)c1 [GNF 5] | 498.5 AU | 65630.6 AU | – | –
38 | COc1cc2c(Oc3ccc4[nH]c(C)cc4c3F)ncnc2cc1OCCCN1CCCC1 [Cediranib (AZD217)] | 1359.3 AU | 15765.2 AU | – | –
39 | CCN1CCN(Cc2ccc(NC(=O)Nc3ccc(Oc4cc(NC)ncn4)cc3)cc2C(F)(F)F)CC1 [AST 487] | 7505.2 AU | 5709.8 AU | – | –
40 | O=C(CCl)c1c[nH]c2ccccc12 [3CAI] | 6736.4 AU | 43810.0 AU | – | –
41 | O=[N+]([O-])/C=C/c1ccc2c(c1)OCO2 [MNS] | 1958.5 AU | 51870.8 AU | – | –
42 | O=C(NOCCO)c1ccc2cncn2c1Nc1ccc(I)cc1F [GDC-0623] | 0.0 AU | 1908.1 AU | – | –
